Data as given in BigSolDB 2.1.

O=[N+]([O-])N(CCO)CCO.O=[N+]([O-])O.O=[N+]([O-])O
solubility (mole fraction)
Details | in 1,2-dichloroethane | in 1,4-dioxane | in DMSO | in acetone | in acetonitrile | in dichloromethane | in ethanol | in ethyl acetate | in methanol | in toluene
283.15 K | 0.388 | 0.191 | 0.0407 | 0.234 | 0.182 | 0.0359 | 0.00314 | 0.131 | 0.00238 | 0.0112
288.15 K | 0.441 | 0.245 | 0.0506 | 0.26 | 0.258 | 0.0615 | 0.00518 | 0.17 | 0.00469 | 0.0143
293.15 K | 0.524 | 0.318 | 0.0633 | 0.321 | 0.314 | 0.109 | 0.00751 | 0.209 | 0.0076 | 0.0177
298.15 K | 0.587 | 0.371 | 0.0785 | 0.384 | 0.36 | 0.205 | 0.00986 | 0.285 | 0.0106 | 0.0252
303.15 K | 0.641 | 0.425 | 0.107 | 0.439 | 0.456 | 0.367 | 0.0118 | 0.31 | 0.0126 | 0.0276
308.15 K | 0.704 | 0.488 | 0.132 | 0.536 | 0.519 | 0.448 | 0.0131 | 0.334 | 0.0166 | 0.032
313.15 K | 0.787 | 0.562 | 0.163 | 0.645 | 0.558 | 0.515 | 0.0139 | 0.362 | 0.0207 | 0.0374
